Reference: US6447768B1, “Methods of gene therapy with a DNA sequence encoding NOS” (priority 1998, dated 2002)

Tested on: Human foreskin microvascular endothelial cells (MVEC)
Assay: Angiogenesis assay: capillary-like tube formation of MVEC in fibrin matrix
Type: cell-based
Conditions: for formation of capillary-like structures in fibrin matrices: uninfected MVEC, in combination with TNF-α
Description: Human foreskin microvascular endothelial cells (MVEC) were grown to confluency in M199 medium supplemented with 10% human serum (HS), 10% new-born calf serum (NBCS), penicillin and streptomycin and infected with 3.10_ pfu/ml Ad.IG.CMV.eNOS for 1 hour in M199 +2% NBCS. Medium was refreshed and cells were incubated overnight in M199+10% HS+10% NBCS.
Angiogenesis was analysed as described in Koolwijk et al. J. Cell Biol. 132 p1177-1188 (1996). Briefly, highly confluent MVEC were detached, seeded in a 1.25:1 split ratio on human fibrin matrices as cultures consisting either of uninfected cells, 100% infected cells or mixed cultures consisting of 10% infected/90% uninfected cells and cultured in M199 medium supplemented with 10% human serum (HS), 10% new-born calf serum (NBCS), penicillin and streptomycin.
Invading cells and the formation of tubular structures of endothelial cells in the three-dimensional fibrin matrix were analysed by phase contrast microscopy. After 7 days the total length of the tube-like structure of six randomly chosen microscopic fields per well (7.3 mm^2/field=43.8% of the total well) was measured using a Nikon FXA microscope equipped with a monochrome CCD camera (MX5) connected to a computer with Optimas image analysis software, and expressed as total tube length/cm^2.
For the angiogenesis experiments incubations are performed with cultures of uninfected cells, 10% infected MVEC and of 100% infected MVEC.
All incubations have been performed in the presence of 1 ng/ml TNF-α. Specific conditions tested in the presence and absence of virus were control, +bFGF: 5 ng/ml, +VEGF: 25 ng/ml, +bFGF+L-NAME: 5 ng/ml, 100 iM

| Molecule | effect on tube formation (100 μM, bFGF+TNF-α stimulated cultures, with and without NOS infected cells) | formation of capillary-like structures in fibrin matrices |
| --- | --- | --- |
| COC(=O)[C@@H](N)CCCNC(=N)N[N+](=O)[O-] [L-NAME] | small reduction of tube formation |  |
| VEGF |  | formed capillary-like structures |
| bFGF: basic Fibroblast Growth Factor |  | formed capillary-like structures |
